In patent publication US6932975B2, “Cosmetic composition comprising a phosphoric triester and a skin activating component” (Kao Corporation, priority 1997, dated 2005):

Test system: horny layer of the lower inner arm
Assay: Retention of moisturizing effect: water content in the horny layer by impedance meter (Example 2)
Type: in vivo, human
Details: 20° C., humidity 30%, average N=10; for Retention of moisturizing effect (water content in the horny layer), After 3 hr.: after additional 3 hours, washed with hot water again; for Retention of moisturizing effect (water content in the horny layer), After 15 min.: applied 1 hour, washed off with hot water, 15 minutes after
Experimental: Cosmetics of their corresponding formulations shown in Table 7 were prepared to determine the retention of their moisturizing effects.
A fixed amount of each of the above samples was applied to the lower inner arm of a volunteer and washed off with hot water after left at rest for 1 hour. The volunteer was got to enter an air-conditioned room kept at a temperature of 20° C. and a humidity of 30%. Fifteen minutes after that, the water content in the horny layer of the volunteer was measured by an impedance meter (manufactured by IBS Company). After additional 3 hours, the treated arm was washed with hot water again. Fifty minutes after that, the water content was measured in the same manner as described above. The values shown in the table were average values (N=10).

For `CCCCOCCOP(=O)(OCCOCCCC)OCCOCCCC` [Comparative product 9, Tris(butoxyethyl) phosphate], the “Retention of moisturizing effect (water content in the horny layer), After 3 hr.” value (from here on “Retention of moisturizing effect … After 3 hr.”) was 40 μΩ^−1 and the “Retention of moisturizing effect (water content in the horny layer), After 15 min.” value (“Retention of moisturizing effect … After 15 min.” below) was 70 μΩ^−1.
With “Bis(butoxyethoxyethyl)ethyl phosphate [Comparative product 8]” the “Retention of moisturizing effect … After 3 hr.” value was 40 μΩ^−1 and the “Retention of moisturizing effect … After 15 min.” value was 70 μΩ^−1.
With `O` [Comparative product 12, Purified water] the “Retention of moisturizing effect … After 3 hr.” value was 40 μΩ^−1 and the “Retention of moisturizing effect … After 15 min.” value was 60 μΩ^−1.
For `OCC(O)CO` [Comparative product 11, Glycerol], the “Retention of moisturizing effect … After 3 hr.” value was 45 μΩ^−1 and the “Retention of moisturizing effect … After 15 min.” value was 75 μΩ^−1.
